# Data from PubChem BioAssay (NCI).
#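 Method: 48-hour compound exposure of cells in 96-well plates, five concentrations, linear interpolation of endpoints. GI50 marks 50% less growth. TGI denotes the concentration required for complete inhibition of growth.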
# Assays:
# Assay in all cases: inhibition of tumour cell growth, NCI panel, 48 h
# HCT-15 colon = system: HCT-15 colon
# KM12 colon = system: KM12 colon
# LOX IMVI melanoma = system: LOX IMVI melanoma
# NCI-H460 lung = system: NCI-H460 lung
# OVCAR-8 ovarian = system: OVCAR-8 ovarian
# RPMI-8226 leukemia = system: RPMI-8226 leukemia
# SK-MEL-5 melanoma = system: SK-MEL-5 melanoma
# U251 CNS = system: U251 CNS
# UACC-62 melanoma = system: UACC-62 melanoma
# SF-539 CNS = system: SF-539 CNS
SMILES,TGI (HCT-15 colon),TGI (KM12 colon),TGI (LOX IMVI melanoma),TGI (NCI-H460 lung),TGI (OVCAR-8 ovarian),TGI (RPMI-8226 leukemia),TGI (SK-MEL-5 melanoma),TGI (U251 CNS),TGI (UACC-62 melanoma),TGI (SF-539 CNS),GI50 (HCT-15 colon),GI50 (KM12 colon),GI50 (LOX IMVI melanoma),GI50 (OVCAR-8 ovarian),GI50 (RPMI-8226 leukemia),GI50 (SF-539 CNS),GI50 (SK-MEL-5 melanoma),GI50 (U251 CNS),GI50 (UACC-62 melanoma),GI50 (NCI-H460 lung)
CC(C)NC1CCCCC2c3ccccc3C12O (centres undefined),> 100 µM,> 100 µM,> 100 µM,> 100 µM,> 100 µM,> 100 µM,> 100 µM,> 100 µM,> 100 µM,,,,,,,,,,,
CCOc1ccc2c(c1)[n+]([O-])c(-c1ccccc1)c(N)[n+]2[O-],> 100 µM,> 100 µM,> 100 µM,> 100 µM,> 100 µM,> 100 µM,51.5 µM,> 100 µM,> 100 µM,> 100 µM,,,,,,,,,,
COc1cc(OC)c(OC)cc1/C=C/c1ccccn1,> 10 µM,> 10 µM,> 10 µM,> 10 µM,> 10 µM,,> 10 µM,> 10 µM,> 10 µM,> 10 µM,,,,,,,,,,
O=C(c1ccccc1)[C@H]1Nc2ccc(Cl)cc2[C@H]2c3ccccc3O[C@H]21,28.4 µM,30.2 µM,37.2 µM,34.3 µM,34.6 µM,> 100 µM,27.5 µM,29.2 µM,28.6 µM,28.7 µM,,,,,,,,,,
COC1C(OC(=O)/C=C/C=C/C=C/C=C/C(=O)O)CCC2(CO2)C1C1(C)OC1CC=C(C)C (centres undefined),> 93.9 µM,29.4 µM,,,> 92 µM,78.6 µM,> 64.9 µM,,,> 100 µM,0.296 µM,0.471 µM,0.183 µM,0.301 µM,0.165 µM,0.347 µM,0.271 µM,0.032 µM,0.101 µM,
CCN(CC)C(=O)c1cccc2c(OC)ccc(OC)c12,> 100 µM,> 100 µM,> 100 µM,> 100 µM,> 100 µM,> 100 µM,> 100 µM,> 100 µM,> 100 µM,,,,,,,,,,,
Cc1cc(C)c2c(c1)CSCc1cc(C)cc(C)c1-2,> 100 µM,> 100 µM,33.2 µM,56 µM,> 100 µM,56.4 µM,65 µM,40.5 µM,> 100 µM,,,,,,,,,,,
CN(N=O)C(=O)NC(CCCCNC(=O)OCc1ccccc1)C(=O)OCc1ccccc1 (centres undefined),> 100 µM,> 100 µM,37.1 µM,> 100 µM,36.7 µM,95.4 µM,45.4 µM,> 100 µM,33.1 µM,32.7 µM,,,,,,,,,,
Cc1cccc(-c2nc(=S)[nH][nH]2)c1,> 100 µM,> 100 µM,,> 100 µM,> 100 µM,> 100 µM,> 100 µM,> 100 µM,> 100 µM,> 100 µM,,,,,,,,,,
CCN(CC)P(=O)(c1ccc2c(c1)OCCOCCOCCOCCO2)N(CC)CC,> 100 µM,> 100 µM,> 100 µM,> 100 µM,> 100 µM,> 100 µM,> 100 µM,,> 100 µM,> 100 µM,,,,,,,,,,
CCCN1CCC(Oc2cc(Nc3nc(Nc4cccc(F)c4C(N)=O)c4cc[nH]c4n3)c(OC)cc2Cl)CC1,6.84 µM,6.11 µM,5.31 µM,4.79 µM,9.52 µM,6.35 µM,2.67 µM,5.21 µM,7.09 µM,8.24 µM,1.44 µM,2.72 µM,1.57 µM,4.11 µM,2.11 µM,4.13 µM,1.23 µM,1.68 µM,3.61 µM,1.45 µM
CC(=O)Oc1ccc2c(c1)O/C(=C\c1ccc(N(C)C)cc1)C2=O,> 100 µM,> 100 µM,,> 100 µM,> 100 µM,> 100 µM,> 100 µM,> 100 µM,> 100 µM,> 100 µM,,,,,,,,,,
COc1ccc(/C=C2\C(=O)N(C(=O)c3ccc(NC(C)=O)cc3)N=C2C)cc1OC,> 100 µM,> 100 µM,> 100 µM,> 100 µM,> 100 µM,> 100 µM,> 100 µM,,,> 100 µM,,,,,,,,,,
CCCCCCCCCCCC(c1ccccc1)[N+](C)(C)C (centres undefined),37 µM,1.78 µM,2.5 µM,3.2 µM,3.06 µM,1.92 µM,2.11 µM,2.49 µM,,,14.1 µM,0.511 µM,0.425 µM,1.18 µM,0.462 µM,,0.874 µM,1.14 µM,,1.28 µM
[N-]=[N+]=NC1C(Cl)C(=O)NC(=O)N1[C@H]1C[C@H](O)[C@@H](CO)O1 (some centres undefined),,> 100 µM,> 100 µM,> 100 µM,> 100 µM,> 100 µM,> 100 µM,> 100 µM,> 100 µM,> 100 µM,,,,,71.9 µM,,12.3 µM,,,
CC1=NC2(C(=O)O)C3(C(=O)O)N=C(C)OC3(C(F)(F)F)C2(C(F)(F)F)O1 (centres undefined),,> 100 µM,> 100 µM,> 100 µM,> 100 µM,,,> 100 µM,> 100 µM,> 100 µM,,,,,,,,,,
COc1cccc(C2CC(C)(O)Oc3cc4c(cc32)OCO4)c1 (centres undefined),83.3 µM,> 100 µM,> 100 µM,53.6 µM,> 100 µM,66.2 µM,> 100 µM,86.5 µM,> 100 µM,,,,,,,,,,,
CN(c1ccccc1)c1nc(=[N+](C)C)ss1,> 100 µM,> 100 µM,,> 100 µM,> 100 µM,,> 100 µM,> 100 µM,> 100 µM,> 100 µM,,,,,,,,,,
NC(=O)N/N=C(\Cc1cc(=O)oc2cc(O)ccc12)C(=O)Nc1ccccc1C(N)=O,> 100 µM,> 100 µM,> 100 µM,> 100 µM,> 100 µM,,> 100 µM,> 100 µM,> 100 µM,> 100 µM,,,,,,,,,,
CN1CCN(c2cc(F)c(NC3=C(Cl)C(=O)c4ncccc4C3=O)c(F)c2)CC1,3.06 µM,4.3 µM,2.84 µM,8.49 µM,4 µM,,3.13 µM,3.44 µM,3.17 µM,2.91 µM,1.53 µM,2.01 µM,1.35 µM,1.86 µM,,1.52 µM,1.66 µM,1.8 µM,1.67 µM,2.1 µM
